In article PMC4105339 (Antiviral research, 2014):
Marks after values point to notes of the source that are not given here.

Legend:
[1] = tested on: H5N1 clade 1 A/Chicken/Vietnam/08/2004 neuraminidase; conditions: 37°C
[2] = tested on: human influenza A strains (neuraminidase)
[3] = target: B/Perth/211/01 wild type neuraminidase; conditions: cited from earlier work
[4] = tested on: H5N1 clade 2 A/Chicken/Bangli/BBVD-563/2007 neuraminidase; conditions: 37°C
[5] = tested on: A/Mississippi/03/01 H1N1 wild type neuraminidase
[6] = tested on: A/Fukui/45/04 H3N2 wild type neuraminidase
[7] = tested on: H3N2 wild type neuraminidase; conditions: cited from earlier work
[8] = target: clade 2 H5N1 neuraminidase; conditions: cited from earlier work
[9] = tested on: wild type viruses (neuraminidase)
[10] = target: clade 1 H5N1 neuraminidase; conditions: cited from earlier work
[11] = tested on: B/Perth/211/01 influenza B wild type neuraminidase

In the case of `CCC(CC)[C@H](NC(C)=O)[C@@H]1[C@H](O)[C@@H](C(=O)O)C[C@H]1N=C(N)N` [Peramivir, peramivir], the “Time (T½) for reaction rates to reach half the maximum rate of the uninhibited control” value (“Time (T½) … of the uninhibited control” below) [1] is given as 59.9 min, the T½ values [2] is given as > 4 h and the IC50 [3] is given as 2.8 nM. For the same compound, the “Time (T½) … of the uninhibited control” value [4] was 84.4 min, the “Time (T½) … of the uninhibited control” value [5] was >240^* min and the “Time (T½) … of the uninhibited control” value [6] was >4 h.

In the case of `CC(=O)N[C@H]1[C@H]([C@H](O)[C@H](O)CO)OC(C(=O)O)=C[C@@H]1N=C(N)N` [Zanamivir], the “Time (T½) … of the uninhibited control” value [1] is given as 27.7^* min, the “changes in IC50 from 10 to 60 min in the preincubation reaction” value [7] is given as 1.3 fold and the IC50 [8] is given as 1.3 nM. For the same compound, the “increase in IC50 from 10 to 60 min after addition of substrate in the preincubation reaction” value [8] was 2.2 fold, the “T½ (range over viruses)” value [9] was 0.467 to 1.82 h and the IC50 [3] was 8.9 nM. The “Time (T½) … of the uninhibited control” value [4] was 72.8^* min, the IC50 [10] was 2.1 nM and the “increase in IC50 from 10 to 60 min after addition of substrate in the preincubation reaction” value [10] was 4.5 fold. For the same compound, the “Time (T½) … of the uninhibited control” value [5] was 41.3 min and the “Time (T½) … of the uninhibited control” value [11] was 24.6^* min.
